According to patent US20090012152A1, “Use of Tetramic Acid Derivatives for Controlling Insects from the Genus of the Plane Lice (Sternorrhyncha)” (Bayer CropScience Aktiengesellschaft, priority 2005, published 2009):

Experiments:
Type in all cases: in vivo
[1] = system: Bemisia tabaci; test: Example 32: bell peppers treated against Bemisia tabaci; conditions: larvae on leaves, % a.i.: imidacloprid 0.02, I-9, I-2, I-11 0.0144
Description: In three replications, plots of a size of 10 m^2 with bell peppers of the cultivar “Italiano” are treated against Bemisia tabaci. The application is carried out using a motor-operated knapsack sprayer. Here, the active compounds Example (I-9) (240 SC), Example (I-2) (60 SC) and Example (I-11) (60 SC) and the commercial standard imidacloprid (200 SL) are applied at the stated application rates. Three applications at an interval of 14 or 15 days are carried out, at an application rate of 1000 or 1100 l of water/ha.
Evaluation is carried out 7, 14 and 22 days after the second treatment by rating the kill of the animals (larvae) on the leaves.

[2] = system: Bemisia argentifolii; test: Example 35: aubergines (F 100) treated against Bemisia argentifolii; conditions: 7 d after last of three treatments, nymphs on leaves, % a.i.: imidacloprid 0.014, I-9, I-2, I-11 0.0144
Description: In three replications, plots of a size of 10 m^2 with aubergines of the cultivar “F 100” are treated against Bemisia argentifolii. The application is carried out using a knapsack sprayer operated with pressurized air. Here, the active compounds Example (I-9) (60 SC), Example (I-2) (60 SC) and Example (I-11) (60 SC) and the commercial standard imidacloprid (70 WG) are tested at the stated application rates. Three applications are carried out, at an interval or 7 or 8 days. The application rate is 1000 l of water/ha.
Evaluation is carried out 7 days after the last treatment by rating the kill of the nymphs on the leaves.

[3] = system: Macrosiphum euphorbiae; test: Example 43: aubergines treated against Macrosiphum euphorbiae; conditions: nymphs on leaves, % a.i.: imidacloprid 0.014, I-9, I-2, I-11 0.0144
Description: In three replications, plots of a size of 10 m^2 with aubergines of the cultivar “F 100” are treated against Macrosiphum euphorbiae. The application is carried out using a knapsack sprayer operated with pressurized air. Here, the active compounds Example (I-9) (60 SC), Example (I-2) (60 SC) and Example (I-11) (60 SC) and the commercial standard imidacloprid (70 WG) are tested at the stated application rates. Three applications are carried out, at an interval of 7 or 8 days. The application rate is 1000 l of water/ha.
Evaluation is carried out 7 and 14 days after the second treatment by rating the kill of the nymphs on the leaves.

[4] = system: Pulvinaria aurantii; test: Example 11: satsuma trees treated against Pulvinaria aurantii; conditions: 41 days after treatment; live animals counted, Henderson and Tilton; satsuma tree; % a.i.: buprofezin 0.025, I-4 0.0144
Description: In three replications, in each case one about 4-year-old satsuma tree of the cultivar “Nankan 20” is treated against Pulvinaria aurantii. Here, the active compound Example (I-4) (240 SC) in a tank mix with 0.2% of rapeseed oil methyl ester (500 EW) at the stated application rate is tested against the commercial standard buprofezin at the stated application rate. The application is carried out using a motor-operated knapsack sprayer. Here, each plant is treated with 400 ml of spray liquor.
(§1) Evaluation is carried out before and 41 days after the treatment by counting the live animals. The efficacy in percent is then calculated according to Henderson and Tilton.

[5] = system: Ceroplastes rubens; test: Example 12: satsuma trees treated against Ceroplastes rubens; conditions: 41 days after treatment; live animals counted, Henderson and Tilton; satsuma tree; % a.i.: buprofezin 0.025, I-4 0.0072
Description: In three replications, in each case one about 4-year-old satsuma tree of the cultivar “Nankan 20” is treated against Ceroplastes rubens. Here, the active compound Example (I-4) (240 SC) in a tank mix with 0.1% of rapeseed oil methyl ester (500 EW) at the stated application rate is tested against the commercial standard buprofezin (25 WP) at the stated application rate. The application is carried out using a motor-operated knapsack sprayer. Here, treatment is carried out using an application rate of 400 l of water/ha.
as §1

[6] = system: Saissetia oleae; test: Example 13: orange trees treated against Saissetia oleae; conditions: nymphs on leaves, g a.i./ha/m crown height: buprofezin 500, I-4 72, I-8 30
Description: In three replications, in each case two about 8-year-old orange trees are treated against Saissetia oleae. Here, the active compounds Example (I-4) (240 SC) and Example (I-8) (250 SC) in a tank mix with 0.2% a.i. of rapeseed oil methyl ester (500 EW) at the stated application rate are tested against the commercial standard buprofezin in a tank mix with 0.4% a.i. of Oliocin (800 EW) at the stated application rate. The application is carried out using a motor-operated knapsack sprayer. The application rate is 3000 l of water/ha. Two treatments are carried out, at an interval of 29 days.
Evaluation is carried out 24 and 44 days after the last treatment by rating the kill of the nymphs on the leaves.

[7] = system: Selenaspidius articulatus; test: Example 19: orange trees treated against Selenaspidius articulatus; conditions: 100 d after treatment, on leaves, % a.i.: methidathion 0.05, I-9 0.0288, I-4 0.0144
Description: In three replications, 3-year-old orange trees of the cultivar “Pera natal” are treated against Selenaspidius articulatus. The application is carried out using a motor-operated knapsack sprayer. Here, the active compounds Example (I-9) (240 SC) and Example (I-4) (240 SC) at the stated application rate are tested against the standard methidathion (400 EC) in the stated amounts, applied once. The application rate is 3.3 l of water per tree.
Evaluation is carried out 100 days after the treatment by rating the kill on the leaves.

[8] = system: Orthezia praelonga; test: Example 25: orange trees treated against Orthezia praelonga; conditions: population on leaves, % a.i.: methidathion 0.05, I-4 0.0144, I-9 0.0144
Description: In two replications, two about 7-year-old orange trees of the cultivar “Pera Rio” are treated against Orthezia praelonga. Here, the active compounds Example (I-4) (240 SC) and Example (I-9) (240 SC), in a tank mix with 0.1% a.i. of Renex, are tested against the commercial standard Methidathion (400 EC), at the stated application rates. The application is carried out using a knapsack sprayer operated with pressurized air. Evaluation is carried out 6 and 16 days after the treatment by rating the kill of the population on the leaves.

[9] = system: Saissetia oleae; test: Example 14: orange trees (Navelina) treated against Saissetia oleae; conditions: 120 d after treatment, kill on branches, % a.i.: Dursban 0.096, I-4 0.012, I-9 0.0054, pyriproxyfen 0.005
Description: In three replications, orange trees of the cultivar “Navelina” are treated against Saissetia oleae. Here, the active compounds Example (I-4) (240 SC) and Example (I-9) (240 SC) in a tank mix with 0.1% of rapeseed oil methyl ester (500 EW) at the stated application rate are tested against the commercial standards Dursban (480 EC) and pyriproxyfen (100 EC) at the stated application rate. The application is carried out using a motor-operated knapsack sprayer. The application rate is 3200 l of water/ha.
Evaluation is carried out 120 days after the treatment by rating the kill of the animals on the branches.

[10] = system: Lepidosaphes beckii; test: Example 18: citrus trees treated against Lepidosaphes beckii; conditions: 140 days after treatment, larvae on fruits, g a.i./ha/m crown height: pyriproxyfen 50, I-4 48
Description: In three replications, in plots of a size of about 20 m^2, citrus trees of the cultivar “Oro Nules” are treated against Lepidosaphes beckii. The application is carried out using a high-pressure sprayer. Here, the active compound Example (I-4) (240 SC) in a tank mix with 0.1% a.i. of rapeseed oil methyl ester (500 EW) is tested against the commercial standard pyriproxyfen (100 EC), at the stated application rates. The application rate is 2500 l of water/ha.
Evaluation is carried out 140 days after the treatment by rating the kill of the larvae on the fruits.

[11] = system: Parlatoria pergandei; test: Example 27 / 18a: orange trees treated against Parlatoria pergandei; conditions: 73 d after last of two treatments, on fruits, % a.i.: pyriproxyfen 0.005, I-9 0.0096
Description: The evaluation for Example 18a against Parlatoria pergandei is carried out as part of the test as described in Example 27 and is listed separately in Example 27.
(§2) In three replications, orange trees of the cultivar “Navelina” are treated against Parlatoria pergandei and Pseudococcus citri. Two applications are carried out at an interval of 77 days using a motor-operated knapsack sprayer. Here, the active compound Example (I-9) (240 SC), in a tank mix with 0.1% a.i. of rapeseed oil methyl ester (500 EW), at the stated amount, is tested against the commercial standard pyriproxyfen (100 EC), at the stated amounts. The application rate is 3000 l of water/ha.
(§3) Evaluation is carried out 56 days or 73 days after the last treatment by rating the kill in percent on the fruits.

[12] = system: Pseudococcus citri; test: Example 27: orange trees treated against Pseudococcus citri; conditions: 56 d after last of two treatments, on fruits, % a.i.: pyriproxyfen 0.005, I-9 0.0096
Description: as §2, §3

CCCC(=O)OC1=C(c2cc(C)c(C)cc2C)C(=O)NC12CCC(OCC)CC2 (centres unmarked) [Example (I-11)]
Kill (%) 7 d ([1]; 7 d after second treatment): 85.4% | Kill (%) 14 d ([1]; 14 d after second treatment): 93.3% | Kill (%) 22 d ([1]; 22 d after second treatment): 91.3% | Kill (%) 7 d [2]: 94% | Kill (%) 7 d ([3]; 7 d after second treatment): 98% | Kill (%) 14 d ([3]; 14 d after second treatment): 99%

CC(C)N1C(=O)N(c2ccccc2)CS/C1=N\C(C)(C)C [buprofezin, reference compound]
Effect (%) [4]: 68% | Effect (%) [5]: 50% | Kill (%) 24 d ([6]; 24 d after last of two treatments): 33.5% | Kill (%) 44 d ([6]; 44 d after last of two treatments): 50.5%

COc1nn(CSP(=S)(OC)OC)c(=O)s1 [methidathion, reference compound]
Kill (%) 100 d [7]: 77% | Kill (%) 6 d ([8]; 6 d after treatment): 91% | Kill (%) 16 d ([8]; 16 d after treatment): 61%

CC(COc1ccc(Oc2ccccc2)cc1)Oc1ccccn1 (centres unmarked) [pyriproxyfen, reference compound]
Effect (%) 120 d [9]: 100% | Kill (%) 140 days [10]: 100% | Kill (%) 73 d [11]: 97.5% | Kill (%) 56 d [12]: 28.8%
